The record followed here is US8552013B2, “Heterocyclic compounds based on N6-substituted adenine, methods of their preparation, their use for preparation of drugs, cosmetic preparations and growth regulators, pharmaceutical preparations, cosmetic preparations and growth regulators containing these compounds” (USTAV Experimentalni Botaniky Akademie Ved Ceske Republiky, priority 2001, dated 2013).

Each structure is given as a SMILES string.

Assay [1] relates to human diploid fibroblasts (HCA cells). Briefly: Senescence, beta-galactosidase staining of human diploid fibroblasts. It counts as cell-based. To be noted: for SENESCENT CELLS (%) HCA25: passage 25; for SENESCENT CELLS (%) HCA45: passage 45; for SENESCENT CELLS (%) HCA80: passage 80. As for the experimental part: In this example, human diploid fibroblasts (HCA cells of various passage levels: passage 25—designated HCA25; passage 45—designated HCA45; passage 80—designated HCA80) were stained for β-galactosidase activity. The medium used for cell cultivation was removed, the cells were washed twice in […], and fixed in 2-3 ml of fixing solution comprised of a 2% formaldehyde and 0.2% glutaraldehyde in PBS. The cells were incubated at room temperature for 5 minutes, then washed twice with PBS. The cells were subsequently incubated at 37° C. (without CO2) for 1 to 16 hours in 2-3 ml of a solution comprising potassium ferricyanide (5 mM), potassium ferrocyanide (5 mM), MgCl2 (2 mM), X-gal (5-bromo-4-chloro-3-indolyl-β-D-galactopyranoside) (1 mg/ml), in citric/phosphate buffer, pH 6.0). […] In this experiment, senescent cells, but not other cells were stained blue due to the action of β-galactosidase on the substrate (FIG. 4).

Assay [2] concerns Triticum aestivum cv. Hereward leaf tips. The assay is described as follows: Retention of chlorophyll in excised wheat leaf tips. The assay is classed as in vivo. The note with it: for Activity (%) [10^−4 mol · l^−1 BAP = 100%]: chlorophyll retention at the concentration with highest activity. As for the experimental part:
Seeds of winter wheat, Triticum aestivum cv. Hereward, were washed under running water for 24 hours and then sown on vermiculite soaked with Knop's solution. They were placed in the grown chamber at 25° C. with a 16/8 h light period at 50 μmol.m^−2.s^−1. After 7 days, the first leaf was fully developed and the second leaf had started to grow. A tip section of the first leaf, approximately 35 mm long, was removed from 5 seedlings and trimmed slightly to a combined weight of 100 mg. The basal ends of the five leaf tips were placed in the wells of a microtiter polystyrene plate containing 150 μl of a cytokinin solution each. The entire plate was inserted into a plastic box lined with paper tissues soaked in distilled water to prevent leaf sections from drying out. After a 96 h incubation in the dark at 25° C., the leaves were removed and chlorophyll extracted by heating at 80° C. for 10 min in 5 ml of 80% ethanol (v/v). The sample volume was then restored to 5 ml by the addition of 80% ethanol (v/v). The absorbency of the extract was recorded at 665 nm. In addition, chlorophyll extracts from fresh leaves and leaf tips incubated in deionised water were measured. From the obtained data, the concentration with highest activity was selected for each compound tested. Relative activity of the compound at this concentration was calculated (Tab. 6). The activity obtained for 10^−4 M 6-benzylaminopurine (BAP) was postulated as 100%. The values shown are means of five replicates and the whole experiment was repeated twice. The cytokinins to be tested were dissolved in dimethylsulfoxide (DMSO) and the solution brought up to 10^−3M with distilled water. This stock was further diluted in distilled water to concentrations ranging from 10^−8M to 10^−4M.

For assay [3], the system named is tobacco callus Nicotiana tabacum L. cv. Wisconsin 38. The assay is described as follows: Cytokinin-dependent tobacco callus growth. It counts as cell-based. The note with it: fresh callus weight at the concentration with highest activity. The method, then: Cytokinin-dependent tobacco callus Nicotiana tabacum L. cv. Wisconsin 38 was maintained at 25° C. in darkness on modified Murashige-Skoog medium, containing per 1 liter: 4 μmol nicotinic acid, 2.4 μmol pyridoxine hydrochloride, 1.2 μmol thiamine, 26.6 μmol glycine, 1.37 μmol glutamine, 1.8 μmol myo-inositol, 30 g of sucrose, 8 g of agar, 5.37 μmol α-naphtylacetic acid (NAA) and 0.5 μmol benzylaminopurine (BAP). Subcultivation was carried out every three weeks. Fourteen days before the bioassay, the callus tissue was transferred to the media without 6-benzylaminopurine (BAP). Biological activity was determined from the increase in fresh callus weight after four weeks of cultivation. Five replicates were prepared for each cytokinin concentration and the entire test was repeated twice. From the obtained data, the concentration with highest activity was selected for each compound tested. Relative activity of the compound at this concentration was calculated (Tab. 6). The activity obtained for 10^−4 M 6-benzylaminopurine (BAP) was postulated as 100%. The cytokinins to be tested were dissolved in dimethylsulfoxide (DMSO) and the solution brought up to 10^−3M with distilled water. This stock was further diluted in the respective media used for the biotest to concentrations ranging from 10^−8M to 10^−4M.

For assay [4], the system named is Amaranthus caudatus cotyledon/hypocotyl explants. Briefly: Amaranthus bioassay, betacyanin content. The note with it: betacyanin content at the concentration with highest activity. The assay is classed as in vivo. As for the experimental part:
Standard Amaranthus bioassay was performed with several modifications. The seeds of Amaranthus caudatus var. atropurpurea were surface-sterilised in 10% N-chlorobenzenesulfonamide (w/v) for 10 min and washed 5 times in deionized water. They were placed in 14 cm Petri dishes containing paper tissues saturated with deionized water. After 72 h of cultivation at 25° C. in darkness, the roots of the seedlings were cut off. The explants, consisting of two cotyledons and hypocotyls, were placed in 5 cm Petri dishes on two layers of filter paper soaked in 1 ml of incubation medium containing 10 μmol NA2HPO4-KH2PO4, pH 6.8, 5 μmol tyrosine and the cytokinin to be tested. There were 20 explants per dish. The procedure was carried out under a green safe light in a darkroom. After a 48 h of incubation at 25° C. in darkness, betacyanin was extracted by freezing the explants in 4 ml […] acetic acid. The concentration of betacyanin was determined by comparing the absorbance at 537 nm and 620 nm as follows: ΔA=[…] nm-A620 nm. From the obtained data, the concentration with highest activity was selected for each compound tested. Relative activity of the compound at this concentration was calculated (Tab. 6). […] The values shown in table 8 are means of five replicates and the entire test was repeated twice. The cytokinins to be tested were dissolved in dimethylsulfoxide (DMSO) and the solution brought up to 10^-3M with distilled water. This stock was further diluted in the respective media used for the biotest to concentrations ranging from 10^-8M to 10^-4M.

`Oc1c(Cl)cccc1CNc1ncnc2nc[nH]c12` [2-hydroxy-3-chlorobenzylamino, 6-(2-hydroxy-3-chloroxybenzylamino)purine]: in assay [1], the “SENESCENT CELLS (%) HCA25” value is given as 4%, the “SENESCENT CELLS (%) HCA45” value was 3% and the “SENESCENT CELLS (%) HCA80” value was 14%.

For `CSc1nc(NCc2cccc(O)c2)c2[nH]cnc2n1` [2-methylthio-6-(3-hydroxybenzylamino)purine], in assay [2], the “Activity (%) [10^−4 mol · l^−1 BAP = 100%]” value is given as 50.5 (±23.5) %.

In the case of `COc1ccc(CNc2ncnc3nc[nH]c23)c(O)c1O` [2,3-dihydroxy-4-methoxybenzylamino, 6-(2,3-dihydroxy-4-methoxybenzylamino)purine], in assay [1], the “SENESCENT CELLS (%) HCA25” value is given as 3%, the “SENESCENT CELLS (%) HCA45” value was determined as 4% and the “SENESCENT CELLS (%) HCA80” value stood at 17%.

On to `Brc1ccccc1CNc1ncnc2nc[nH]c12` [6-(2-bromobenzylamino)purine], for which the “Activity (%) [10^−4 mol · l^−1 BAP = 100%]” value in assay [3] is reported as 102 (±5) %; in assay [2] it was 52 (±14) %. In assay [4], the “activity (%) [10^−5 mol · l^−1 BAP = 100%]” value is 94 (±6) %.

Take `Oc1cc(Cl)cc(O)c1CNc1ncnc2nc[nH]c12` [2,6-dihydroxy-4-chlorobenzylamino, 6-(2,6-dihydroxy-4-chlorobenzylamino)purine]: in assay [1], the “SENESCENT CELLS (%) HCA25” value is recorded as 3%, the “SENESCENT CELLS (%) HCA45” value is on record as 3% and the “SENESCENT CELLS (%) HCA80” value worked out at 16%.

For `Clc1ccc(CNc2ncnc3nc[nH]c23)c(Cl)c1` [6-(2,4-dichlorobenzylamino)purine], the “Activity (%) [10^−4 mol · l^−1 BAP = 100%]” value in assay [3] is 11 (±3) %; in assay [2], 0%. For the same compound, the “activity (%) [10^−5 mol · l^−1 BAP = 100%]” value in assay [4] is 19 (±8) %.

Take `c1ccc(Nc2ncnc3nc[nH]c23)cc1` [Anilino, 6-anilinopurine]: in assay [1], the “SENESCENT CELLS (%) HCA25” value is listed as 3%, the “SENESCENT CELLS (%) HCA45” value came to 4% and the “SENESCENT CELLS (%) HCA80” value is recorded as 27%.

With `CC(=O)c1ccccc1CNc1ncnc2nc[nH]c12` [2-acetylbenzylamino, 6-(2-acetylbenzylamino)purine], in assay [1], the “SENESCENT CELLS (%) HCA25” value turned out to be 3%, the “SENESCENT CELLS (%) HCA45” value was determined as 4% and the “SENESCENT CELLS (%) HCA80” value came out at 25%.

As to `Nc1cc(CNc2ncnc3nc[nH]c23)ccc1Cl` [3-amino-4-chlorobenzylamine, 6-(3-amino-4-chlorobenzylamino)purine], in assay [1], the “SENESCENT CELLS (%) HCA25” value was found to be 5%, the “SENESCENT CELLS (%) HCA45” value stood at 5% and the “SENESCENT CELLS (%) HCA80” value is given as 22%.

As to `COc1ccc(CNc2ncnc3nc[nH]c23)cc1OC` [6-(3,4-dimethoxybenzylamino)purine], the “activity (%) [10^−5 mol · l^−1 BAP = 100%]” value in assay [4] was 27 (±6) %. The “Activity (%) [10^−4 mol · l^−1 BAP = 100%]” value in assay [2] is reported as 43 (±17) %.

Consider `O=C(O)c1cc(Nc2ncnc3nc[nH]c23)ccc1O` [3-carboxy-4-hydroxyanilino, 6-(3-carboxy-4-hydroxyanilino)purine], for which, in assay [1], the “SENESCENT CELLS (%) HCA25” value was determined as 4%, the “SENESCENT CELLS (%) HCA45” value was 2% and the “SENESCENT CELLS (%) HCA80” value came out at 26%.

As for `NCc1ccc(Cl)c(N)c1N` [2,3-diamino-4-chlorobenzylamine], in assay [1], the “SENESCENT CELLS (%) HCA25” value is reported as 4%, the “SENESCENT CELLS (%) HCA45” value is given as 3% and the “SENESCENT CELLS (%) HCA80” value was determined as 17%.

On to `COc1cc(O)c(CNc2ncnc3nc[nH]c23)cc1O` [2,5-dihydroxy-4-methoxybenzylamino, 6-(2,5-dihydroxy-4-methoxybenzylamino)purine], for which, in assay [1], the “SENESCENT CELLS (%) HCA25” value came out at 5%, the “SENESCENT CELLS (%) HCA45” value is recorded as 3% and the “SENESCENT CELLS (%) HCA80” value was found to be 22%.

As to `O=C(O)c1ccc(Nc2ncnc3nc[nH]c23)cc1Cl` [3-chloro-4-carboxyanilino, 6-(3-chloro-4-carboxyanilino)purine], in assay [1], the “SENESCENT CELLS (%) HCA25” value is 5%, the “SENESCENT CELLS (%) HCA45” value was 2% and the “SENESCENT CELLS (%) HCA80” value came out at 25%.

For the compound `Oc1cc(CNc2ncnc3nc[nH]c23)c(O)cc1Cl` [2,5-dihydroxy-4-chlorobenzylamino, 6-(2,5-dihydroxy-4-chlorobenzylamino)purine], in assay [1], the “SENESCENT CELLS (%) HCA25” value is reported as 5%, the “SENESCENT CELLS (%) HCA45” value amounted to 4% and the “SENESCENT CELLS (%) HCA80” value was 23%.

As for `CC(=O)c1cccc(CNc2ncnc3nc[nH]c23)c1` [3-acetylbenzylamino, 6-(3-acetylbenzylamino)purine], in assay [1], the “SENESCENT CELLS (%) HCA25” value was determined as 5%, the “SENESCENT CELLS (%) HCA45” value was determined as 5% and the “SENESCENT CELLS (%) HCA80” value is recorded as 28%.

As for `Oc1cccc(CNc2nc(Cl)nc3nc[nH]c23)c1` [2-chlor-6-(3-hydroxybenzylamino)purine], in assay [2], the “Activity (%) [10^−4 mol · l^−1 BAP = 100%]” value was 140 (±13) %. In assay [2] (wheat leaf tips, 96 h in the dark), the “concentration with highest activity” value is on record as 10^−4 mol · l^−1.

As to `Nc1cccc(Cl)c1CNc1ncnc2nc[nH]c12` [2-amino-6-chlorobenzylamine, 6-(2-amino-6-chlorobenzylamino)purine], in assay [1], the “SENESCENT CELLS (%) HCA25” value is listed as 3%, the “SENESCENT CELLS (%) HCA45” value came out at 4% and the “SENESCENT CELLS (%) HCA80” value came out at 16%.

On to `CC(=O)Oc1ccccc1CNc1ncnc2nc[nH]c12` [2-acetoxybenzylamino, 6-(2-acetoxybenzylamino)purine], for which, in assay [1], the “SENESCENT CELLS (%) HCA25” value is on record as 6%, the “SENESCENT CELLS (%) HCA45” value was 5% and the “SENESCENT CELLS (%) HCA80” value is listed as 32%.

With `COc1cc(O)c(CNc2ncnc3nc[nH]c23)c(O)c1` [2,6-dihydroxy-4-methoxybenzylamino, 6-(2,6-dihydroxy-4-methoxybenzylamino)purine], in assay [1], the “SENESCENT CELLS (%) HCA25” value is listed as 4%, the “SENESCENT CELLS (%) HCA45” value came out at 3% and the “SENESCENT CELLS (%) HCA80” value was 13%.

As for `Oc1c(Cl)ccc(CNc2ncnc3nc[nH]c23)c1O` [2,3-dihydroxy-4-chlorobenzylamino, 6-(2,3-dihydroxy-4-chlorobenzylamino)purine], in assay [1], the “SENESCENT CELLS (%) HCA25” value is 3%, the “SENESCENT CELLS (%) HCA45” value is recorded as 3% and the “SENESCENT CELLS (%) HCA80” value stood at 14%.

Take `CC(=O)Oc1cccc(CNc2ncnc3nc[nH]c23)c1` [3-acetoxybenzylamino, 6-(3-acetoxybenzylamino)purine]: in assay [1], the “SENESCENT CELLS (%) HCA25” value was found to be 4%, the “SENESCENT CELLS (%) HCA45” value amounted to 6% and the “SENESCENT CELLS (%) HCA80” value was determined as 27%.

Regarding `Nc1nc(NCc2cccc(O)c2)c2[nH]cnc2n1` [2-amino-6-(3-hydroxybenzylamino)purine], in assay [2], the “Activity (%) [10^−4 mol · l^−1 BAP = 100%]” value is 121 (±7) %.
